Measurements reported in US20230002736A1, “ENDODERM DIFFERENTIATION FROM PLURIPOTENT STEM CELL LINES” (priority 2019, published 2023).

Assays:
iPSC lines = assay type: cell-based
Method: Induction of Definitive Endoderm (days 1-7). iPSCs were plated on 6-, 12-, or 96-well Matrigel-coated plates at different densities for differentiation in iPSC media containing 10 μM Y-27632 and 2 μM doxycycline. For example, typical plating density in a single well of a 6-well plate was 500,000 cells or 20,000 cells per well for 96-well plates. The differentiation process consisted of one week of RPMI media supplemented with Gem21 NeuroPlex without insulin at 1× (supplied at 50×, Gemini Bio-Products West Sacramento, Calif., catalog #400-962, or supplemented with Gibco B27 without insulin at 1×), Glutagro at 1× (Corning, Manassas, Va., catalog #25-015-CI, non-essential amino acids at 1× (Gibco, catalog #11-140-050), sodium butyrate (0.5 mM, Sigma Aldrich, catalog #B5887) and recombinant human Activin A (100 ng/mL, Peprotech, Rocky Hill, N.J., catalog #120-14E) for 7 days. On day 1, 2% KnockOut Serum Replacement (KSR; Gibco Catalog #10828028), CHIR-99021 (10 ng/mL, Selleckchem catalog #S2924), PI-103 (10 ng/mL,Selleckchem catalog #S1038), recombinant human BMP4 (10 ng/mL, Peprotech catalog #120-05ET) and FGF2 (20 ng/mL, Peprotech catalog #100-18B) were added to the media. On day 2, 1% KSR, PI-103 (10 ng/mL) and BMP4 (10 ng/mL) and FGF2 (20 ng/mL) and on day 3, 0.2% KSR and PI-103 (10 ng/mL) were added to the media. Doxycycline hyclate (Acros Organics catalog #446061000) was added throughout definitive endoderm induction starting on day 0 (passage day) at various concentrations, as described herein, with a standard concentration being 2 μM. These steps can be performed at normal room oxygen at about 20% or at low oxygen between 4 and 6%.

Cleaved Caspase 3 (CC3) = test: Cleaved caspase 3 immunofluorescence during endoderm induction; assay type: cell-based, human; settings: 48 hours of induction, 4 different cell-line experiments
Method: Immunohistochemistry and Cell staining. iPSCs, endodermal cells and iHeps were fixed using 4% paraformaldehyde for 15 minutes, permeabilized using 0.1% Triton X-100 for 10 minutes followed by 3× PBS (phosphate buffered saline, Corning Life Sciences) rinses and blocking with 1.5% bovine serum albumin for 1 hour. Samples were incubated with primary antibody overnight. […]
As a first step to understand the mechanism by which doxycycline was affecting induction of iPSCs into endoderm, we explored whether doxycycline was affecting proliferation versus cellular death. […] After quantification, we noted both significant Ki-67 staining and cleaved caspase 3 (CC3) staining, as expected (FIG. 3A). […]

## C[C@H]1c2cccc(O)c2C(=O)C2=C(O)[C@]3(O)C(=O)C(C(N)=O)=C(O)[C@@H](N(C)C)[C@@H]3[C@@H](O)[C@@H]21 [doxycycline]
iPSC lines; by the third day of induction
  concentration giving total cell death: > 10000 ng/mL
iPSC lines; endoderm induction
  concentration tolerated by the cells: up to 10 μg/mL
Cleaved Caspase 3 (CC3)
  decrease in CC3 staining: greater than 50%
